Data from US20170333591A9, “ABSORBENT ARTICLE COMPRISING MALODOR REDUCTION COMPOSITIONS” (The Procter & Gamble Company, priority 2014, published 2017).

Experiment: Log of liquid dish neat product liquid-air partition coefficient
Type: physicochemical
Settings: for Log of liquid dish neat product liquid-air partition coefficient (Comment Code): code letters K/L of the Comment Code; for Log of liquid dish neat product liquid-air partition coefficient (Comment Code K/L): Comment Code letters K and/or L

Row | SMILES | Log of liquid dish neat product liquid-air partition coefficient (Comment Code) | Comment Code: Log of liquid dish neat product liquid-air partition coefficient | Log of liquid dish neat product liquid-air partition coefficient (Comment Code K/L)
1 | CC(CO)CCCc1ccccc1 (stereo not drawn) [Material 1012] | K (Log of liquid dish neat product liquid-air partition coefficient greater than or equal to 7) | – | –
2 | CC1=CCOC(c2ccccc2)C1 (stereo not drawn) [Material 1016] | K (Log of liquid dish neat product liquid-air partition coefficient greater than or equal to 7) | – | –
3 | C=C[C@@](C)(O)CCC=C(C)C [Material 1017] | – | K (Log of liquid dish neat product liquid-air partition coefficient greater than or equal to 7) | –
4 | C=CCc1ccc2c(c1)OCO2 [Material 1021] | K (Log of liquid dish neat product liquid-air partition coefficient greater than or equal to 7) | – | –
5 | CC1=CC(C)C2(CCCC(C)(C)C2=O)CC1 (stereo not drawn) [Material 1022] | K (Log of liquid dish neat product liquid-air partition coefficient greater than or equal to 7) | K (Log of liquid dish neat product liquid-air partition coefficient greater than or equal to 7) | –
6 | CC1=CCC(CCC(C)C(C)O)C1(C)C (stereo not drawn) [Material 1023] | K (Log of liquid dish neat product liquid-air partition coefficient greater than or equal to 7) | – | –
7 | CC/C(=C/CC1CC=C(C)C1(C)C)CO (stereo not drawn) [Material 1024] | K (Log of liquid dish neat product liquid-air partition coefficient greater than or equal to 7) | K (Log of liquid dish neat product liquid-air partition coefficient greater than or equal to 7) | –
8 | CC(=CCC1CC=C(C)C1(C)C)CO (stereo not drawn) [Material 1025] | K (Log of liquid dish neat product liquid-air partition coefficient greater than or equal to 7) | – | –
9 | COC1CC2CC1C1CC(C=O)CC21 (stereo not drawn) [Material 1026] | K (Log of liquid dish neat product liquid-air partition coefficient greater than or equal to 7) | – | –
10 | COC1CC2CC1C1CC(C=O)CC21 (stereo not drawn) [Material 1027] | K (Log of liquid dish neat product liquid-air partition coefficient greater than or equal to 7) | K (Log of liquid dish neat product liquid-air partition coefficient greater than or equal to 7) | –
11 | CC1=CC[C@@H]2[C@@]3(C)CCCC(C)(C)[C@@H]3CC[C@@]2(C)O1 [Material 1029] | K (Log of liquid dish neat product liquid-air partition coefficient greater than or equal to 7) | K (Log of liquid dish neat product liquid-air partition coefficient greater than or equal to 7) | –
12 | CCCOC(=O)[C@H](C)OC(C)(C)CC [Material 1030] | – | K (Log of liquid dish neat product liquid-air partition coefficient greater than or equal to 7) | –
13 | CC(C)Cc1ccc(CC(C)C=O)cc1 (stereo not drawn) [Material 1033] | K (Log of liquid dish neat product liquid-air partition coefficient greater than or equal to 7) | – | –
14 | C=C1CC[C@@H]2[C@H]([C@H]3[C@H]1CC[C@]3(C)O)C2(C)C [Material 1035] | K (Log of liquid dish neat product liquid-air partition coefficient greater than or equal to 7) | K (Log of liquid dish neat product liquid-air partition coefficient greater than or equal to 7) | –
15 | CC1CCC2C(C2(C)C)C12COC(C)(C)OC2 (stereo not drawn) [Material 1036] | K (Log of liquid dish neat product liquid-air partition coefficient greater than or equal to 7) | – | –
16 | C=CCCC(=O)C1=CCCC2(CCCC2)C1 [Material 1038] | K (Log of liquid dish neat product liquid-air partition coefficient greater than or equal to 7) | K (Log of liquid dish neat product liquid-air partition coefficient greater than or equal to 7) | –
17 | CC(=O)OC(C)c1ccccc1 (stereo not drawn) [Material 1041] | – | K (Log of liquid dish neat product liquid-air partition coefficient greater than or equal to 7) | –
18 | CCCCCCC/C=C\CCC=O [Material 1045] | K (Log of liquid dish neat product liquid-air partition coefficient greater than or equal to 7) | – | –
19 | CC1=CC2C(C(C)C)CCC(C)(O)C2CC1 (stereo not drawn) [Material 1046] | K (Log of liquid dish neat product liquid-air partition coefficient greater than or equal to 7) | – | –
20 | CC1=CC2C(C(C)C)CCC(C)(O)C2CC1 (stereo not drawn) [Material 1047] | K (Log of liquid dish neat product liquid-air partition coefficient greater than or equal to 7) | – | –
21 | CC(O)CCC1C(C)CCCC1(C)C (stereo not drawn) [Material 1052] | – | K (Log of liquid dish neat product liquid-air partition coefficient greater than or equal to 7) | –
22 | CCCC(O)CCC1C(C)CCCC1(C)C (stereo not drawn) [Material 1063] | K (Log of liquid dish neat product liquid-air partition coefficient greater than or equal to 7) | – | –

Row | SMILES | Log of liquid dish neat product liquid-air partition coefficient (Comment Code) | Comment Code: Log of liquid dish neat product liquid-air partition coefficient | Log of liquid dish neat product liquid-air partition coefficient (Comment Code K/L)
23 | CC(C)=CCC/C(C)=C/CC/C(C)=C/CO [Material 1065] | K (Log of liquid dish neat product liquid-air partition coefficient greater than or equal to 7) | – | –
24 | CC/C=C\C/C=C/CCO [Material 1072] | K (Log of liquid dish neat product liquid-air partition coefficient greater than or equal to 7) | – | –
25 | CC=CC(=O)C1C(C)=CCCC1(C)C (stereo not drawn) [Material 1074] | – | K (Log of liquid dish neat product liquid-air partition coefficient greater than or equal to 7) | –
26 | CC(C)=CCC/C(C)=C/CO [Material 1082] | K (Log of liquid dish neat product liquid-air partition coefficient greater than or equal to 7) | – | –
27 | CCCCCC1C(=O)CCC1CC(=O)OC (stereo not drawn) [Material 1083] | K (Log of liquid dish neat product liquid-air partition coefficient greater than or equal to 7) | – | –
28 | C/C=C/c1ccc(O)c(OC)c1 [Material 1084] | – | K (Log of liquid dish neat product liquid-air partition coefficient greater than or equal to 7) | –
29 | CCCCCCCCCCCCCO [Material 1090] | K (Log of liquid dish neat product liquid-air partition coefficient greater than or equal to 7) | – | –
30 | CC(=O)C1CC/C(C)=C\CC/C(C)=C\C/C=C/1C (stereo not drawn) [Material 1095] | K (Log of liquid dish neat product liquid-air partition coefficient greater than or equal to 7) | – | –
31 | CC1CC2CCC3C(C2O1)C(C)(C)C(C)C3(C)C (stereo not drawn) [Material 1097] | K (Log of liquid dish neat product liquid-air partition coefficient greater than or equal to 7) | K (Log of liquid dish neat product liquid-air partition coefficient greater than or equal to 7) | –
32 | CC1CC=CCCCCCCCC(=O)OCC1 (stereo not drawn) [Material 1099] | K (Log of liquid dish neat product liquid-air partition coefficient greater than or equal to 7) | – | –
33 | CCCCCCCCCCC=O [Material 1102] | K (Log of liquid dish neat product liquid-air partition coefficient greater than or equal to 7) | – | –
34 | CCC=C(C)C(O)CCCCC (stereo not drawn) [Material 1104] | K (Log of liquid dish neat product liquid-air partition coefficient greater than or equal to 7) | – | –
35 | C=C(C)[C@@H]1CCC2=CCC[C@@H](C)[C@]2(C)C1 [Material 1105] | K (Log of liquid dish neat product liquid-air partition coefficient greater than or equal to 7) | – | –
36 | C[C@@H]1CCC=C2CC[C@@H](C(C)(C)O)C[C@]21C [Material 1107] | K (Log of liquid dish neat product liquid-air partition coefficient greater than or equal to 7) | K (Log of liquid dish neat product liquid-air partition coefficient greater than or equal to 7) | –
37 | CC=Cc1ccc(OCC)c(O)c1 [Material 1112] | – | K (Log of liquid dish neat product liquid-air partition coefficient greater than or equal to 7) | –
38 | COCc1ccc(O)c(OC)c1 [Material 1113] | – | – | K (Log of liquid dish neat product liquid-air partition coefficient greater than or equal to 7)
39 | CC(C=O)=CCC1C(C)=CCCC1(C)C (stereo not drawn) [Material 1116] | – | – | K (Log of liquid dish neat product liquid-air partition coefficient greater than or equal to 7)
40 | COc1ccc(C=O)cc1OC [Material 1118] | – | K (Log of liquid dish neat product liquid-air partition coefficient greater than or equal to 7) | –
41 | CC1CC(C)(c2ccccc2)OC(C)O1 (stereo not drawn) [Material 1126] | – | – | K (Log of liquid dish neat product liquid-air partition coefficient greater than or equal to 7)
42 | CC(=O)C1=C(C)[C@@H]2C[C@@]3(C1)[C@H](C)CC[C@H]3C2(C)C [Material 1129] | – | K (Log of liquid dish neat product liquid-air partition coefficient greater than or equal to 7) | K (Log of liquid dish neat product liquid-air partition coefficient greater than or equal to 7)
43 | CC(=O)OC(C)CC(C)(C)c1ccccc1 (stereo not drawn) [Material 1134] | – | K (Log of liquid dish neat product liquid-air partition coefficient greater than or equal to 7) | –
44 | C[C@@H]1CC[C@H]2[C@@H]1[C@H]1[C@@H](CC[C@]2(C)O)C1(C)C [Material 1140] | – | K (Log of liquid dish neat product liquid-air partition coefficient greater than or equal to 7) | K (Log of liquid dish neat product liquid-air partition coefficient greater than or equal to 7)
